Test results published in patent US11702428B2, “Chemical compounds as inhibitors of interleukin-1 activity” (Genentech, Inc., priority 2017, dated 2023).
Like-named read-outs stand apart in the source and are kept apart here.

What was measured:
[1] = Human microsomal stability (Eh); type: in vitro ADME; settings: hepatic extraction ratio; 0.5 mg/mL microsomal protein, 1 μM, NADPH; liver blood flow 20.7 mL/min/kg
Procedure: The stock solutions of test article and positive control were prepared at a concentration of 10 mM using DMSO as diluents. All stock solutions were then diluted to working concentrations at 0.25 mM with 70% acetonitrile. The cofactor used in this study was NADPH regenerating system, that was composed of 6.5 mM NADP, 16.5 mM G-6-P, 3 U/mL G-6-P D. The quench reagent was consisted of acetonitrile containing tolbutamide and propanolol (serve as internal standard). Incubation mixtures containing 0.5 mg/mL liver microsomal protein and […] test article/positive control in 100 mM potassium phosphate buffer.
The 0-minute samples were prepared by addition of an 80 μL aliquot of each incubation mixture to 300 μL quench reagent to precipitate proteins. The samples were vortexed, and then a 20 μL aliquot of the NADPH regenerating system was added in. The reaction was initiated by addition of 80 μL of the NADPH regenerating system to 320 μL of each incubation mixture. The final incubation conditions achieved in 400 μL are: 0.5 mg/mL microsomal protein, 1 μM test article/positive control, 1.3 mM NADP, 3.3 mM glucose 6 phosphate, 0.6 U/mL glucose 6 phosphate dehydrogenase. The mixtures were incubated in a 37° C. water bath with gentle shaking. A 100 μL aliquot of each mixture was removed at 10, 30, 90 minutes to a clean 96-well plate which contains 300 μL quench reagent to precipitate proteins, and centrifuged (4000×g, 10 min). 80 μL of supernatant are taken into 96-well assay plates pre-added with 160 μL ultrapure water, and then analyzed by LC-MS/MS. Hepatic extraction ratio (Eh) values were calculated from measured in vitro clearance assuming a human liver blood flow of 20.7 mL/min/kg. Eh values of <0.3 are indicative of compounds with favorable metabolic stability.

[2] = tested on: LPS and nigericin stimulated cells; test: cells; type: cell-based; settings: Homo sapiens, read-out: CTG protective IC50
Procedure: Viability of compound treated cells is measured using CellTiter-Glo® assay (Promega, Madison, Wis.) that measures the ATP content of cells which is proportional to the number of live cells within a well. This is a counter-screen to establish that the reduction of IL-1β levels in LPS and nigericin stimulated and compound treated cells is not due to cytotoxicity, but rather through the inhibition of the inflammasome pathway. Compounds inhibiting NRLP3 inflammasome activation ultimately increase the viability of LPS and nigericin stimulated cells by blocking NLRP3 mediated pyroptosis that would otherwise lead to cell lysis.

TNFα = TNFα levels of LPS and nigericin stimulated cells (counter-screen); type: cell-based, human
Procedure: (§1) For ELISA assays cells were seeded into 96-well plates. Post study, supernatants were removed and the levels of mature IL-1β, IL-18 and TNFα (Quantikine ELISA, R&D systems) were measured in cell conditioned media by ELISA according to manufacturer's instructions.
TNFα levels of LPS and nigericin stimulated cells is measured by HTRF assay (Cisbio, Bedford, Mass.). […] Measuring TNFalpha production also serves as a technical counter-screen to eliminate compounds that interfere with the HTRF reagents. Thus compounds that inhibit both IL-1β and TNFα levels are triaged for either being non-selective for inflammasome or interfering with the HTRF readout.

NLRP3 inflammasome [3] = target: T1, NLRP3 inflammasome (Homo sapiens, UniProt Q96P20); test: NLRP3 inflammasome activation assay in Kupffer cells (LPS priming, nigericin), IL-1β/IL-18 by ELISA; type: cell-based; settings: KCs; LPS, nigericin; read-out: KC IL-1β IC50
Source text: (§2) Some of the following assays were used to determine the inhibitory activity of the compounds on the NLRP3 inflammasome using a common inflammasome activation stimuli-nigericin.
Human Kupffer cells (KCs), specialized liver macrophages residing in […], were obtained by gradient isolation from liver specimens harvested post-mortem by Samsara Sciences. Cells were obtained through an IRB approved donor program by Samsara Sciences and all donors tested negative for bacterial and viral infections.
(§3) Cells were then stimulated with 10 uM Nigericin (Sigma Aldrich; InvivoGen) for 1.5 h. Plates were centrifuged at 1,500 rpm for 3 minutes to pellet cells and supernatant was transferred into new plates for subsequent experiments.
as §1

NLRP3 inflammasome [4] = target: T1, NLRP3 inflammasome; test: NLRP3 inflammasome activation assay in PBMCs (LPS priming, nigericin), IL-1β by ELISA; type: cell-based; set-up: Human peripheral blood mononuclear cells (PBMCs); host or cells: primary human PBMCs from healthy donors; settings: LPS, nigericin, read-out: PBMC IL-1β IC50
Procedure: as §2
Human peripheral blood mononuclear cells (PBMCs), consisting of lymphocytes (T, B and NK cells), monocytes and dendritic cells, were freshly isolated from human peripheral blood from healthy donors. Cells were obtained through an IRB approved donor program by iXCells Biotechnologies where all the donors were tested for bacterial and viral infections. Cells were purified from peripheral blood using ficoll gradient centrifugation.
as §3, §1

Pharmacokinetics in mice = type: in vivo, CD-1 Mice; settings: Male CD-1 Mice; for AUC(0-t): read-out: AUC 0-24 hr
Procedure: The intravenous dosing solutions were administered at 1 mg/kg and were made by dissolving the test article into the formulations shown below. The oral dosing suspensions or solutions were administered at 10 mg/kg and were made by dissolving the test article in the formulations shown below. Blood samples were collected into tubes containing either K2EDTA or sodium heparin and kept chilled on ice block or wet ice immediately following collection and during processing. After centrifugation, the resulting plasma samples were stored in a freezer at −80° C. until samples were analyzed. Pharmacokinetic parameters were determined following measurement of compound concentrations in plasma using standard bioanalytical methods at timepoints ranging from 0 to 24 hours.

[5] = LPS and nigericin stimulated cells, CellTiter-Glo
[6] = mouse, plasma, PO, 10 mg/kg, 0.5% MC

T1 sequence (Q96P20 whole entry): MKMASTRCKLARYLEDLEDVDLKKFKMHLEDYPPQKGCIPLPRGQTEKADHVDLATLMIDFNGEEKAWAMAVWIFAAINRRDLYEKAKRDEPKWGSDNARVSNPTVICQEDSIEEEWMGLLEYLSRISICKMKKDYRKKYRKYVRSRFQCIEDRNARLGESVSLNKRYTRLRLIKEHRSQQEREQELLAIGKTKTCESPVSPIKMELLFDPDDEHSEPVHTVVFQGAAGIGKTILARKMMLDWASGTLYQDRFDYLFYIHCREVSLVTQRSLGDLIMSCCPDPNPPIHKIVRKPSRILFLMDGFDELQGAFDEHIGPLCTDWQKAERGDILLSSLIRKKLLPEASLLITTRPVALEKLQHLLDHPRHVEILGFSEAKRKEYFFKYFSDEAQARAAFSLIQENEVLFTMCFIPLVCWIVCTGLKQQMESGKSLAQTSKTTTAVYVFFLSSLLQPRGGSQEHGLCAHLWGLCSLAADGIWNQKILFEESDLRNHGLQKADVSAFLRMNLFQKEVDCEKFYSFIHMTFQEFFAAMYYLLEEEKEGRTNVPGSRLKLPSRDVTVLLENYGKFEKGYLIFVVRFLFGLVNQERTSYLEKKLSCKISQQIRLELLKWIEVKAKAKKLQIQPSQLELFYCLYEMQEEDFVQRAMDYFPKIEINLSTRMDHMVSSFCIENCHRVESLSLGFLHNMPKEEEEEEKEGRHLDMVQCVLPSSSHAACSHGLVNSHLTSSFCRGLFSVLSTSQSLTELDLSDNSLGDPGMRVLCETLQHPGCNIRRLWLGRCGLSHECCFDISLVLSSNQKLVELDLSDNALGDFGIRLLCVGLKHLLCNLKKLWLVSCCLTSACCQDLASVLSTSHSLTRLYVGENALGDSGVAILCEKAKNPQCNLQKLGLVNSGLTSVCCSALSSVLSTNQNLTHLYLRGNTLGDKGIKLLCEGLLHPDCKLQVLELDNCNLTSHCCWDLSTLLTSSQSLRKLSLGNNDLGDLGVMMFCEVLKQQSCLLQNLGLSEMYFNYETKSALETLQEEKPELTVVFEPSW

Compound | Human Microsomal Stability (Eh) [1] | TNFα IC50 (PBMC or KC) (TNFα) | IC50 [2, 5] [nM] | IC50 (NLRP3 inflammasome [3]) [nM] | IC50 (NLRP3 inflammasome [4]) [nM] | also measured
O=C(Nc1c2c(cc3c1CCC3)CCC2)NS(=O)(=O)c1cnn2c1OCCC2 | 0.3 | No Curve | – | – | – | IC50 [2]: < 100 nM
CN(C)C1COc2c(S(=O)(=O)NC(=O)Nc3c4c(cc5c3CCC5)CCC4)cnn2C1 (stereo not drawn) | 0.2 | – | – | – | – | IC50 [2]: < 100 nM
CC1COc2c(S(=O)(=O)NC(=O)Nc3c4c(cc5c3CCC5)CCC4)cnn2C1 (stereo not drawn) | 0.4 | – | < 100 | < 100 | < 100 | –
O=C(Nc1c2c(cc3c1CCC3)CCC2)NS(=O)(=O)c1cnn2c1NCCC2 | 0.2 | – | < 100 | < 100 | < 100 | –
Cc1c2c(c(NC(=O)NS(=O)(=O)c3cnn4c3OCCC4)c3c1CCC3)CCC2 | – | No Curve | 100 to 1000 | – | 100 to 1000 | –
CO[C@H]1COc2c(S(=O)(=O)NC(=O)Nc3c4c(cc5c3CCC5)CCC4)cnn2C1 | 0.3 | No Curve | < 100 | < 100 | < 100 | –
O=C(Nc1c2c(cc3c1CCC3)CCC2)NS(=O)(=O)c1cc2n(n1)CCOC2 | – | No Curve | 100 to 1000 | – | 100 to 1000 | –
C[C@H]1COc2c(S(=O)(=O)NC(=O)Nc3c4c(cc5c3CCC5)CCC4)cnn2C1 | – | No Curve | < 100 | < 100 | < 100 | –
O=C(Nc1c2c(cc3c1CCC3)CCC2)NS(=O)(=O)c1cnn2c1OCC(N1CCCC1)C2 (stereo not drawn) | 0.6 | – | < 100 | – | < 100 | –
CCN[C@H]1COc2c(S(=O)(=O)NC(=O)Nc3c4c(cc5c3CCC5)CCC4)cnn2C1 | 0.2 | – | < 100 | – | < 100 | –
CNC1COc2c(S(=O)(=O)NC(=O)Nc3c4c(cc5c3CCC5)CCC4)cnn2C1 (stereo not drawn) | 0.1 | – | – | – | – | IC50 [2]: < 100 nM
CN[C@H]1COc2c(S(=O)(=O)NC(=O)Nc3c4c(c(F)c5c3CCC5)CCC4)cnn2C1 | 0.2 | – | < 100 | – | < 100 | –
CC1(C)COc2c(S(=O)(=O)NC(=O)Nc3c4c(cc5c3CCC5)CCC4)cnn2C1 [A] | – | – | – | – | – | Bioavailability (% F) (Pharmacokinetics in mice; PO, 10 mg/kg, 0.5% MC): 64 % F; Cmax (Pharmacokinetics in mice; mouse, plasma, IV, 1 mg/kg): 9200 ng/mL; clearance (Pharmacokinetics in mice; mouse, plasma, IV, 1 mg/kg): 0.667 mL/min/kg; half-life (Pharmacokinetics in mice; mouse, plasma, IV, 1 mg/kg): 2.8 h; AUC(0-t) (Pharmacokinetics in mice; mouse, plasma, IV, 1 mg/kg): 29.2 µg·h/mL; Vd (Pharmacokinetics in mice; mouse, plasma, IV, 1 mg/kg, read-out: Vz): 0.137 L/kg; Cmax (Pharmacokinetics in mice; [6]): 22700 ng/mL; half-life (Pharmacokinetics in mice; [6]): 3.4 h; AUC(0-t) (Pharmacokinetics in mice; [6]): 186 µg·h/mL
